Reference: US20180346502A1, “Processes for the Preparation of SGLT-2 Inhibitors, Intermediates Thereof” (Emmennar Pharma Private Limited, priority 2017, published 2018)

Assay: Storage stability of amorphous empagliflozin at 5±3°C (HPLC chemical purity, PXRD)
Assay type: physicochemical
Settings: for Chemical Purity (HPLC) / PXRD: Temp = 5 ± 3° C.
Procedure: • (a) (1S)-1,5-anhydro-1-C-[4-chloro-3-[[4-[[(3S)-tetrahydro-3-furanyl]oxy]phenyl]methyl]phenyl]-D-glucitol, i.e., empagliflozin (amorphous) • Apparatus: A liquid chromatographic system is to be equipped with variable • wavelength UV-Detector and Integrator. • Column: Promosil C18, 250×4.6 mm, 100 A°, 5 μm or equivalent • Column Temperature: 40° C. • Wavelength: 225 nm • Flow rate: 1.2 mL/min • Injection volume: 5 μL • Run Time: 60 min • Elution: Gradient • Diluent: Acetonitrile: Water (50:50 v/v) • Mobile phase A: Buffer solution • Mobile phase B: Acetonitrile: Water (95:5 v/v) • Buffer solution: Transfer accurately about 1 mL of ortho phosphoric acid into 1000 mL of milli-Q water, filter through 0.45 μm nylon membrane and sonicate to degas. • (b) Amorphous solid dispersion of empagliflozin and ethyl cellulose (EC) • Chromatographic conditions are same as given under (a). • (c) Amorphous solid dispersion of empagliflozin and hydroxypropyl cellulose (HPC) • Chromatographic conditions are same as given under (a), except for: • Wavelength: 220 nm • Column temperature: 35° C. • Mobile Phase B: Acetonitrile: Water (90:10 v/v) • (d) (1S)-1,5-anhydro-1-C-[4-chloro-3-[(4-ethoxyphenyl)methyl] phenyl]-D-glucitol i.e., dapagliflozin • Chromatographic conditions are same as given under (a), except for: • Column temperature: 35° C. • Run Time: 55 min • Mobile Phase B: Acetonitrile: Water (90:10 v/v)
The diffraction patterns were measured using Bruker D2 PHASER diffractometer equipped with LYNXEYE™ detector, used radiation Cu Kα (λ=1.54060 Å), excitation voltage: 30 kV, anode current: 10 mA, measured range: 3-40° 2θ, increment: 0.01° 2θ.

- Chemical Purity (HPLC) (Stability period 1 month): 99.90
- PXRD (Stability period 1 month): Amorphous
- Chemical Purity (HPLC) (Stability period 3 months): 99.88
- PXRD (Stability period 3 months): Amorphous
- Chemical Purity (HPLC) (Stability period 6 months): 99.89
- PXRD (Stability period 6 months): Amorphous
- Chemical Purity (HPLC) (Stability period 12 months): 99.88
- PXRD (Stability period 12 months): Amorphous
- Chemical Purity (HPLC) (Stability period Initial): 99.88
- PXRD (Stability period Initial): Amorphous
- stable on storage (period) (storage at 5±3° C.): 12 months
SMILES: OC[C@H]1O[C@@H](c2ccc(Cl)c(Cc3ccc(O[C@H]4CCOC4)cc3)c2)[C@H](O)[C@@H](O)[C@@H]1O [Empagliflozin, (1S)-1,5-anhydro-1-C-[4-chloro-3-[[4-[[(3S)-tetrahydro-3-furanyl]oxy]phenyl]methyl]phenyl]-D-glucitol]
